From patent publication US8889672B2, “Compounds, formulations, and methods of protein kinase C inhibition” (The Regents of The University of Michigan, priority 2011, dated 2014)
Read-outs that look alike come from different tables or passages of the source. One block for each molecule: values may come before it.

Columns and labels:
[1] = tested on: HEK293pNF-kBluc cells; experiment: TNF-induced NF-kB activation assay (luciferase reporter); assay type: cell-based, human; details: 3 h pre-treatment, 5 ng/mL TNF for 5 h
Experimental: HEK293pNF-kBluc cells (Panomics, Fremont, Calif., USA) were cultured according to the manufacturer's protocol. Cells were seeded onto 96-well plates in phenol red-free DMEM containing high glucose (Sigma) for 24 hours prior to assay. Cells were exposed to a candidate compound for three hours. Following treatment, cells were stimulated with 5 ng/ml TNF (R&D Systems) for five hours. Cells were then lysed with Bright-Glo™ luciferase reagent (Promega, Madison, Wis., USA) and luminescent values were obtained using a GloMax® instrument using standard protocol for Bright-Glo™ luciferase reagent. Values were background corrected and normalized to TNF treatment alone and represented as % NF-kB activity.
Human embryonic kidney cells containing a luciferase reporter gene for NF-kB activation (HEK293pNF-kBluc) were treated with candidate compounds described herein for three hours. The cells were then stimulated with TNF for five hours and the inhibition of NF-kB was evaluated. After pre-treatment with 100 nM of aPKC inhibitor, NF-kB activity was reduced by as much as 80%. […] Other compounds tested inhibited TNF-induced NF-kB activity, but to a lesser degree.

[2] = molecular target: T1, aPKCζ (Homo sapiens (Human), UniProt Q05513); experiment: Kinase-Glo end-point assay, IC50 against aPKCζ; details: 125 ng/ml aPKCζ, 25 μM CREBtide, 0.1 μM ATP
[3] = molecular target: T1, aPKCζ; experiment: ADP Quest assay, IC50 against aPKCζ; details: 500 ng/ml aPKCζ, 10 μM CREBtide, 10 μM ATP
[4] = tested on: PKC isoforms; experiment: PKC class specificity from radio-labeled kinase assay; assay type: biochemical, human
Source text: (§1) PKCldiMeO and PKCζl-diCl were screened against other PKC isoforms to determine class specificity using a radio-labeled kinase assay at the Kmapp for ATP. […] PKCζl-diCl was 5-10 fold more specific towards the atypical PKC isoforms compared to the classical PKCs (α, β) and over 10-20 fold more specific compared to the novel class (δ,ε).

[5] = tested on: BREC monolayer; experiment: VEGF-induced retinal endothelial permeability assay (70 kDa RITC-Dextran); assay type: cell-based, bovine; details: pretreatment 30 min, 30 or 100 nM PKCζl-diCl, 30 or 300 nM PKCl-diMeO; 50 ng/ml VEGF
Experimental: (§2) Primary bovine retinal endothelial cells (BREC) were isolated from fresh bovine eye tissue. Human retinal endothelial cells (HREC) were from Cell Systems (Krikland, Wash., USA). Cells were grown in MCDB-131 complete media (Sigma-Aldrich, Mo., USA) containing 10% fetal bovine serum, 10 ng/ml epidermal growth factor, 200 μg/ml Endogro (Vec Technologies, Rensselaer, N.Y., USA), 90 μg/ml heparin, antibiotics and antimycotics. For experimentation, cells were grown to confluence and serum starved for 24 hours with 100 nM hydrocortisone and treated with VEGF at 50 ng/ml where indicated. All experiments were performed with cells at passage 5-8.
(§3) RECs were plated onto 0.4 μm Transwell filters (Corning Costar, Acton, Mass., USA) and grown to confluence. Following treatments, 70 kDa rhodamine β isothiocyanate-dextran (RITC-Dextran) was added to the apical chamber and samples were collected from the basolateral chamber at 30 minute intervals for 4 hours. The rate of flux of the substrate, Po, was calculated over the 4 hour time course from the following formula. Po=[FL/Δt)VA]/(FAA) where Po is in centimeters per second; FL is basolateral fluorescence; FA is apical fluorescence; Δt is change in time; A is the surface area of the filter (in square centimeters); and VA is the volume of the basolateral chamber (in cubic centimeters). […]

[6] = tested on: retinal vasculature tight junction complex (occludin); experiment: Occludin immuno-labeling of retinal flat mounts after intra-vitreal VEGF; details: intra-vitreal co-injection with VEGF
[7] = tested on: human retinal endothelial primary cells (HREC) monolayers; experiment: Basal permeability of HREC monolayers; assay type: cell-based
Experimental: as §2, §3

[8] = tested on: occludin and ZO-1 border staining in BREC; experiment: Tight junction protein localization after VEGF (immunocytochemistry, confocal); assay type: cell-based, bovine; details: 100 nM, 30 min before 50 ng/ml VEGF for 60 min
Experimental: VEGF treatment of retinal endothelial cells and diabetes leads to a breakdown of the tight junction complex and internalization of tight junction proteins occludin and ZO-1. The ability of the phenyl-thiophene derivatives to prevent the VEGF-induced reduction in tight junction border staining was examined. BREC were grown to confluence on coverslips and pretreated with 100 nM PKCζ-diCl for 30 minutes prior to treatment with 50 ng/ml VEGF for 60 minutes. Cells were fixed and stained with antibodies for ZO-1 or occludin and were visualized by confocal microscopy. VEGF decreased the border staining and continuity of ZO-1 and occludin labeling at the cell border. […] This effect on the tight junction correlated with the observed attenuation of VEGF-induced permeability.

[9] = tested on: BREC monolayer; experiment: TNF/VEGF permeability assay; assay type: cell-based, bovine; details: 30 min pretreatment, TNFα 1 hour then VEGF 30 min; for EC50: read-out: EC50 for inhibition of TNF/VEGF-induced endothelial permeability
Experimental: BREC were plated onto 0.4 μm Transwell filters (Corning Costar, Acton, Mass., USA) and grown to confluence. Following 30 minutes of pretreatment with candidate compound, cells were subjected to 5 ng/ml TNFα (R&D Systems, Minneapolis, Minn., USA) for one hour, then 50 ng/ml VEGF (R&D Systems) for 30 minutes. Following treatments, 70 kDa Rhodamine β isothiocyanate-dextran (RITC-Dextran) was added to the apical chamber, and samples were collected from the basolateral chamber at 30 minute intervals for four hours. The rate of flux of the substrate, Po, was calculated over the four-hour time course from the following formula: Po=[FL/delta(t))VA]/(FAA)
where Po is in centimeters per second; FL is basolateral fluorescence; FA is apical fluorescence; delta(t) is change in time; A is the surface area of the filter (in square centimeters); and VA is the volume of the basolateral chamber (in cubic centimeters).

[10] = tested on: AKT in endothelial cells; experiment: AKT, downstream mediator of PI3K signaling, in endothelial cells; assay type: cell-based
[11] = Solubility in aqueous environments; assay type: physicochemical
[12] = molecular target: PKCε (Homo sapiens (Human), UniProt Q02156); experiment: Radio-labeled kinase assay at the Kmapp for ATP; assay type: biochemical
Source text: as §1

[13] = molecular target: PKCβ (Homo sapiens (Human), UniProt P05771); experiment: Radio-labeled kinase assay at the Kmapp for ATP; assay type: biochemical
Source text: as §1

[14] = molecular target: PKCδ (Homo sapiens (Human), UniProt Q05655); experiment: Radio-labeled kinase assay at the Kmapp for ATP; assay type: biochemical
Source text: as §1

[15] = molecular target: PKCα (Homo sapiens (Human), UniProt P17252); experiment: Radio-labeled kinase assay at the Kmapp for ATP; assay type: biochemical
Source text: as §1

[16] = tested on: BREC; experiment: LIVE/Dead cell viability; details: 24 and 48 hours; up to 300 nM
[17] = tested on: cPKC / Erk phosphorylation in endothelial cells; experiment: cPKC activity in cell culture (Erk phosphorylation, immunoblot); assay type: cell-based
Experimental: Cells were harvested in extraction buffer containing 100 mM NaCl, 1% Triton X-100, 0.5% Sodium Deoxycholate, 0.2% SDS, 2 mM EDTA, 10 mM HEPES (pH 7.5), 1 mM sodium orthovanadate, 10 mM sodium fluoride, 10 mM sodium pyrophosphate, 1 mM benzamadine, 1 complete protease inhibitor tablet, 10 μM LR-microcystin. Following protein extraction, Western blot utilizing the NuPAGE system (Invitrogen, Carlsbad, Calif., USA) was performed. Protein content was determined using DC protein assay (BioRad, Hercules, Calif., USA) and equal amounts of protein were loaded in 4-12% Bis-Tris gradient gels. Following electrophoresis and transferring to nitrocellulose, membranes were blocked in milk with 5% Tris-buffered saline with 0.1% Tween 20. Membranes were immunoblotted using anti-Flag (Cell Signaling, Danvers, Mass., USA), anti-HA (Cell Signaling, Danvers, Mass., USA), anti-phospho ERK1/2 (Cell Signaling, Danvers, Mass., USA), anti-total ERK1/2 (Cell Signaling, Danvers, Mass., USA), anti-phospho aPKC (Cell Signaling, Danvers, Mass., USA), total PKCζ (Santa Cruz, Santa Cruz, Calif., USA), and anti-actin (Millipore, Billerica, Mass., USA) antibodies. Primary antibodies were detected by horseradish peroxidase-conjugated anti-rabbit and chemiluminescence with ECL Advance (GE Healthcare, Piscataway, N.J., USA) or anti-mouse IgG alkaline phosphatase with ECF (GE Healthcare, Piscataway, N.J., USA).

[18] = tested on: 20 AGC super-family kinases; experiment: Screen of 20 AGC super-family kinases at 100 μM; assay type: biochemical, human

T1 sequence (Q05513 whole entry): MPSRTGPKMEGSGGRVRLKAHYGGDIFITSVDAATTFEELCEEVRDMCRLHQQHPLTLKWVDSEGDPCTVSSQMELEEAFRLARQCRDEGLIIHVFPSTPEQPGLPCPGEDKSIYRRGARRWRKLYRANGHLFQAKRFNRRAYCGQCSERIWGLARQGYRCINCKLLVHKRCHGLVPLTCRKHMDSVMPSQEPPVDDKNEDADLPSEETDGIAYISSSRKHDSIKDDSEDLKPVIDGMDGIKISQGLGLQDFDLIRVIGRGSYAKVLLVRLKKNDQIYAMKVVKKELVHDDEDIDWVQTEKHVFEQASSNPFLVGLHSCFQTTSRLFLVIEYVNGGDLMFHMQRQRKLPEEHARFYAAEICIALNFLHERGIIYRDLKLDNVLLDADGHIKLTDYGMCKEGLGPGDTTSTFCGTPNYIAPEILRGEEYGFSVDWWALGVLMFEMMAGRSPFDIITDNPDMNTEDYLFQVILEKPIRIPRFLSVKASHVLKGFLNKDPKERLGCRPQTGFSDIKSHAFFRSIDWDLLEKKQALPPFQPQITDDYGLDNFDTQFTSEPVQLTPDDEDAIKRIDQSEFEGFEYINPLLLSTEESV
Sequence of PKCε (Q02156 whole entry): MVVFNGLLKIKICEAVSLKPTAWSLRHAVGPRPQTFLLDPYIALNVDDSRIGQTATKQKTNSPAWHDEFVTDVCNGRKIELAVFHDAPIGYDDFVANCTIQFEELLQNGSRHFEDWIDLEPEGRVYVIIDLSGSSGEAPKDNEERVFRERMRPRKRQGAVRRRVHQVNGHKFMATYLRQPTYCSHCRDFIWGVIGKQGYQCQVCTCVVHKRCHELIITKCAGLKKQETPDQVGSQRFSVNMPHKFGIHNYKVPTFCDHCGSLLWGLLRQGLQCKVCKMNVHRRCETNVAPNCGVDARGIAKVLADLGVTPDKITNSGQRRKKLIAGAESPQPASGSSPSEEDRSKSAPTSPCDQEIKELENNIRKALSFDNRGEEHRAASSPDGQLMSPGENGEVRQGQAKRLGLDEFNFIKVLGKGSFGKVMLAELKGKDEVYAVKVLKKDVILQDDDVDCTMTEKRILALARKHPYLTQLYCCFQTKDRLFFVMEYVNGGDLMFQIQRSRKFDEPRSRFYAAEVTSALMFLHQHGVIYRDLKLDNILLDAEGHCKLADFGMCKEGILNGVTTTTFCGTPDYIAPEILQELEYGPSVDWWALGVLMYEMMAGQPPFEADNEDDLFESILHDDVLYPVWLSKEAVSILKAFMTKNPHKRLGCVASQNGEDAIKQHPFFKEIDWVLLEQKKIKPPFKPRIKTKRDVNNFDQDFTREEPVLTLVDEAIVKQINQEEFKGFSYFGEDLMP
Sequence of PKCδ (Q05655 whole entry): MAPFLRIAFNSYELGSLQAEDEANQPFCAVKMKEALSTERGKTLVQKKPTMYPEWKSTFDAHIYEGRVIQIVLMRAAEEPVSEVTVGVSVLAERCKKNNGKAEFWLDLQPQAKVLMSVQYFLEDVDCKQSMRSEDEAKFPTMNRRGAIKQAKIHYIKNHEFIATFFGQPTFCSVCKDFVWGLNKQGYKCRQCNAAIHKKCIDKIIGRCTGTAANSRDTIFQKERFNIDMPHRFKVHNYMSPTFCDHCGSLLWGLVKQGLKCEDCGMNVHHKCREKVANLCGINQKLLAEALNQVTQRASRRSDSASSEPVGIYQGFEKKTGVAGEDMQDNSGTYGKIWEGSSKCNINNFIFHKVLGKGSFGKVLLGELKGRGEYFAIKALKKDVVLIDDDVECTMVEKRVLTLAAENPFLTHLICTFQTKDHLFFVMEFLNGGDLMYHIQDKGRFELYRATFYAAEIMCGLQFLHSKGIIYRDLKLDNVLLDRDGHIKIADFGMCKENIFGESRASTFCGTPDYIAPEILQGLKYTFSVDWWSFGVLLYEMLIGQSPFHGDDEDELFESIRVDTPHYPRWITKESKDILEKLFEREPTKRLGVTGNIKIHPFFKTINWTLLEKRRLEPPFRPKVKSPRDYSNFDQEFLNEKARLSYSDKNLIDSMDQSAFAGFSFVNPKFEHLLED
Sequence of PKCβ (P05771 whole entry): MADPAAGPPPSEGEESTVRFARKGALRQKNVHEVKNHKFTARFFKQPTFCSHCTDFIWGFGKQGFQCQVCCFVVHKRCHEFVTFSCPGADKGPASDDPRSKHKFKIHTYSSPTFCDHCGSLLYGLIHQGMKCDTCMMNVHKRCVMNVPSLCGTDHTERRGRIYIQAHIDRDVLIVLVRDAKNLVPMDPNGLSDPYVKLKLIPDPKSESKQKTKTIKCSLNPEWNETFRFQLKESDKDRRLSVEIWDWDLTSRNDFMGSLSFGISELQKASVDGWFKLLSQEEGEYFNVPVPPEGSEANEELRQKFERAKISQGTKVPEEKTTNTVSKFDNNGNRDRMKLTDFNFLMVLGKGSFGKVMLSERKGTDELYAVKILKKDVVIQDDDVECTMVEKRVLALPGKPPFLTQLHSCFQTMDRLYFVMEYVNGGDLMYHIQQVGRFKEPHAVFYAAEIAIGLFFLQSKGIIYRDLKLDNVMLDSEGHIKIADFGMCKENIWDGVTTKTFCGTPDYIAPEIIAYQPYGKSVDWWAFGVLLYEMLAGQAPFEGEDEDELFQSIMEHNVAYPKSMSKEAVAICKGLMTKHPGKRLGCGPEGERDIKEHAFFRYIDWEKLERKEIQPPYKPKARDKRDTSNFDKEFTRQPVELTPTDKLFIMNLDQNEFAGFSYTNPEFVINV

IC50 [3]: 5 µM
Structure (SMILES): CC(C)NC(=O)c1c(-c2ccc(Cl)c(Cl)c2)csc1N [Compound 194-094-008]

IC50 [3]: 2 µM
Structure (SMILES): CCOC(=O)c1c(-c2ccc(N)cc2)csc1N [Compound 317-094-001]
EC50 [1]: 0.001 µM

specificity towards atypical PKC isoforms compared to the classical PKCs (α, β) [4]: 5-10 fold
specificity towards atypical PKC isoforms compared to the novel class (δ,ε) [4]: 10-20 fold
VEGF-induced permeability [5]: dose-dependently blocked
basal permeability of HREC monolayers [7]: reducing permeability was also observed
Structure (SMILES): CC(C)OC(=O)c1c(-c2ccc(Cl)c(Cl)c2)csc1N [PKCζl-diCl, isopropyl 2-amino-4-(3,4-dichlorophenyl)thiophene-3-carboxylate]
occludin border staining in retinal vessels [6]: occludin border staining was preserved
VEGF-induced redistribution of occludin and ZO-1 [8]: blocked the VEGF-induced redistribution of occludin and ZO-1 proteins

IC50 [3]: 3 µM
Structure (SMILES): Nc1scc(-c2ccc(Cl)c(Cl)c2)c1C(=O)N1CCOCC1 [Compound 194-094-003]

IC50 [3]: 5 µM
Structure (SMILES): CCNC(=O)c1c(-c2ccc(Cl)c(Cl)c2)csc1N [Compound 194-094-009]

TNF/VEGF-induction of BREC permeability [9]: significantly reduce
EC50 [9]: 0.02 µM
IC50 [3]: 2 µM
Structure (SMILES): CCOC(=O)c1c(-c2ccc3c(c2)OCO3)csc1N [Compound 268-020-002]
EC50 [1]: 0.003 µM

IC50 [3]: 6 µM
Structure (SMILES): CCOC(=O)c1c(-c2ccc(NC(C)=O)cc2)csc1N [Compound 317-056-002]

Continued, molecule first:

Structure (SMILES): CCOC(=O)c1c(-c2ccc(N(C)C)cc2)csc1N [Compound 317-080-001]
EC50 [1]: 0.001 µM

Structure (SMILES): CCOC(=O)c1c(NC(C)=O)sc(C(C)=O)c1-c1ccc(Cl)cc1 [APOGEE B]
IC50 [2]: 71 µM

Structure (SMILES): CCNC(=O)c1c(-c2ccc(OC)c(OC)c2)csc1N [Compound 194-074-008]
IC50 [3]: 4 µM

Structure (SMILES): CCOC(=O)c1c(-c2ccc(OC)cc2F)csc1N [Compound 317-054-001]
EC50 [1]: 0.01 µM
IC50 [3]: 4 µM

Structure (SMILES): COc1ccc(-c2csc(N)c2C(=O)OCc2ccccc2F)cc1OC [Compound 317-052-001]
IC50 [3]: 7 µM

Structure (SMILES): COc1cccc(COC(=O)c2c(-c3ccc(OC)c(OC)c3)csc2N)c1 [Compound 317-052-004]
EC50 [1]: 0.002 µM
IC50 [3]: 5 µM

Structure (SMILES): COc1ccc(-c2csc(N)c2C(=O)N2CCOCC2)cc1OC [Compound 194-074-005]
IC50 [3]: 4 µM

Structure (SMILES): COc1ccc(-c2csc(N)c2C(=O)OCc2ccccc2)cc1OC [Compound 252-036-001]
EC50 [1]: 0.001 µM
IC50 [3]: 6 µM

Structure (SMILES): COc1ccc(-c2csc(N)c2C(=O)OC(C)C)cc1OC [PKCl-diMeO]
AKT signaling [10]: unaffected
solubility in aqueous environments [11]: improved solubility in aqueous environments
specificity towards atypical PKC isoforms compared to the classical PKCs (α, β) [4]: 25-50 fold
specificity towards atypical PKC isoforms compared to the novel class (δ,ε) [4]: 25 fold
TNF/VEGF-induction of BREC permeability [9]: significantly reduce
EC50 ([9]; Bos taurus): 0.001 µM
IC50 [12]: > 100 µM
IC50 [13]: 124 µM
IC50 [14]: 147 µM
IC50 [15]: 282 µM
VEGF-induced permeability [5]: dose-dependently blocked
BREC viability [16]: no evidence of cell death
cPKC activity in cell culture [17]: did not inhibit cPKC activity
Erk phosphorylation ([17]; endothelial cells): unaffected
EC50 ([1]; Homo sapiens): 0.003 µM
inhibitory activity towards other AGC kinases [18]: limited inhibitory activity

Structure (SMILES): COc1ccc(-c2csc(N)c2C#N)cc1OC [Compound 227-076-001]
IC50 [3]: 7 µM

Structure (SMILES): COc1cccc(COC(=O)c2c(-c3ccc(C(N)=O)cc3)csc2N)c1 [Compound 317-120-001]
IC50 [3]: 6 µM
